According to PMC10313671, “Accelerating the prediction and discovery of peptide hydrogels with human-in-the-loop” (Nature Communications, 2023):
Where a SMILES comes first, the peptide text is derived from it.

Key:
[1] = Peptide hydrogel formation, vial-inverting method; assay type: physicochemical; set-up: key to EXP / GELATION: 0: no hydrogel; 1: hydrogel; conditions: for State: ultrasonication, standing 48 h; for Concentration: concentration at which the state was recorded: lowest of 30, 60, 90, 120 mM that gave a gel, 120 mM for non-gelating peptides; for GELATION: 1 = hydrogel, 0 = no hydrogel
Procedure, shortened: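 Gelation judged by vial inversion, a non-flowing self-supporting sample counting as hydrogel, after 48 h standing. Peptide in water at 30 mM first, escalating to 60, 90 and 120 mM if no gel; pH set to 6.5–8.5 by stepwise 1 N NaOH, each step sonicated briefly.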

[2] = Transmission electron microscope (negative staining) of peptide assemblies; conditions: for Morphology: TEM, negative staining with uranyl acetate, 120 kV
Protocol: We used the negative staining technique to observe the morphologies formed by peptides. A micropipette was used to load 10 μL of sample solution to a carbon-coated copper grid, and we used a piece of filter paper to remove the excess solution. After rinsing the grid with the deionized water, we used uranyl acetate to stain the sample for 1 minute and then rinsed the grid with deionized water again.

[3] = Optical images of aqueous peptide solutions at four concentrations; assay type: physicochemical; conditions: pH = 7.5
Protocol: [7. What are the pH values of the hydrogels formed? […]
the captions of proper figures.]
We thank the reviewer for the comment. […]
the information of pH values of tetrapeptide hydrogels/solutions in the captions of Fig. 3a and d. […]
Insets: […]
optical images of corresponding solution/suspension (pH=7.5). […]
[8. Is it surprising that both QQQQ and EEEE form suspension at 120 mM? Any explanation from either ML perspective or thermodynamic prospective?]
We thank the reviewer for the comment. From the ML or simulation perspective, both QQQQ and […]
hydrophilicity and lack of sufficient directional hydrogen bonds captured in simulation and prediction. However, the formation of suspension in real experiments indicate the formation of aggregates, and we attribute this to the thermodynamic factor of concentration.
Actually, we also found this phenomenon on RRRR (also contains four charged amino acids), and […]
We compared the optical images of QQQQ and EEEE at four concentrations (30, 60, 90, and 120 […]
transparency decreased (60, 90, and 120 mM) due to the formation of aggregates. As for EEEE, at […]
suspension. We tend to think that as the concentration of charged tetrapeptides increases, the hydrogen bond between peptide molecules and water is strengthened, resulting in the formation of […]
aggregates at high concentrations. […]
description in Lines 214-216 of this main text.
Fig. R1 The optical images of QQQQ and EEEE aqueous solutions at four concentrations (30, 60, […]
with different sizes in an aqueous solution, qualitatively consistent with the morphologies obtained in MD simulations except for RRRR (Fig. 3d, right column), showing different levels of aggregation. Taking the TEM result of RRRR together, we attributed this to the thermodynamic factor of concentration. Finally, we presented a summary of the assembled morphologies of all […]
tetrapeptides tended to form fibers, sheets, or hybrid morphology (70%) in an aqueous solution. […]
[…]
(1 picture or pasted object on this page, not shown here)

C57BL/6 mice = assay type: in vivo, C57BL/6 J mice; conditions: serum day 21
[4] = 120 mM peptide (highest tested) in ultrapure water, pH 6.5-8.5 (1 N NaOH), vial-inverting method, precipitate, sol, suspension = no gel
[5] = peptide concentration 120 mM, vial-inverting method
[6] = 60 mM peptide in ultrapure water, pH 6.5-8.5 (1 N NaOH), vial-inverting method, no gel at 30 mM
[7] = peptide concentration 60 mM, vial-inverting method

For `NC(=O)CC[C@H](NC(=O)[C@H](CCC(N)=O)NC(=O)[C@H](CCC(N)=O)NC(=O)[C@@H](N)CCC(N)=O)C(=O)O` [QQQQ] (H-QQQQ-OH), the State [1, 4] was “suspension”, the “Concentration” value [1] was 120000 µM and the GELATION [1, 5] was 0. For the same compound, the Morphology ([2]; line of the table gives 120 mM) was “sheet”, the “appearance of aqueous solution (optical image)” value (“appearance of aqueous solution” for short) ([3]; 30 mM) was “clear solution” and the “appearance of aqueous solution” value ([3]; 60 mM) was “solution transparency decreased”. The “appearance of aqueous solution” value ([3]; 90 mM) was “solution transparency decreased” and the “appearance of aqueous solution” value ([3]; 120 mM) was “solution transparency decreased”.
In the case of `N[C@@H](CCC(=O)O)C(=O)N[C@@H](CCC(=O)O)C(=O)N[C@@H](CCC(=O)O)C(=O)N[C@@H](CCC(=O)O)C(=O)O` [EEEE] (H-EEEE-OH), the State [1, 4] is reported as “suspension”, the “Concentration” value [1] is reported as 120000 µM and the GELATION [1, 5] is reported as 0. The Morphology ([2]; line of the table gives 120 mM) was “sheet”, the “appearance of aqueous solution” value ([3]; 30 mM) was “uniform and clear solutions” and the “appearance of aqueous solution” value ([3]; 60 mM) was “uniform and clear solutions”. For the same compound, the “appearance of aqueous solution” value ([3]; 90 mM) was “uniform and clear solutions” and the “appearance of aqueous solution” value ([3]; 120 mM) was “opaque suspension”.
In the case of `C[C@H](NC(=O)[C@@H](N)Cc1ccc(O)cc1)C(=O)N[C@@H](Cc1c[nH]c2ccccc12)C(=O)N[C@@H](Cc1ccccc1)C(=O)O` [YAWF] (H-YAWF-OH), the State [1, 6] is reported as “gel”, the “Concentration” value [1] is reported as 60000 µM and the GELATION [1, 7] is reported as 1. The “hydrogel formation (in words)” value ([1]; vial-inverting method, representative hydrogels pH between 7.0 to 7.5) was “can form hydrogels”, the “increase of RBD-specific IgG2b response compared with the commercial aluminum adjuvant group” value (C57BL/6 mice; C57BL/6 mice) was “around 9.7 fold” and the “production of RBD-specific IgG1 (in words)” value (C57BL/6 mice; C57BL/6 mice, similar to the aluminum group) was “significantly enhanced”. For the same compound, the “RBD-specific IgG2c titers (in words)” value (C57BL/6 mice; C57BL/6 mice, surpassing aluminum group or control group) was “high IgG2c titers”, the “enhancement of the generation of IgG compared with the RBD group” value (C57BL/6 mice; […], C57BL/6 mice) was 41.6 fold and the “endpoint titre of RBD-specific IgG in serum” value (C57BL/6 mice; mean of n = 6 mice, s.c. immunization day 0, 7, 14 with 15 μg RBD alone, with 12.5 μL aluminum adjuvant or 60 mM YAWF hydrogel, […]) was 58615.2. The Morphology ([2]; line of the table gives 60 mM) was “fibre” and the “morphology by TEM (in words)” value ([2]; aqueous solution or hydrogel, negative staining) was “nanofibrous network”.
With `CC[C@H](C)[C@H](NC(=O)[C@@H](NC(=O)[C@@H](N)Cc1c[nH]c2ccccc12)[C@@H](C)CC)C(=O)N[C@@H](Cc1ccccc1)C(=O)O` [WIIF] (H-WIIF-OH) the State ([1]; 30 mM peptide in ultrapure water, pH adjusted to 6.5-8.5 with 1 N NaOH, vial-inverting method, concentration raised 30/60/90/120 mM until gelation) was “gel”, the “Concentration” value [1] was 30000 µM and the GELATION ([1]; peptide concentration 30 mM, vial-inverting method) was 1. The Morphology ([2]; line of the table gives 30 mM) was “fibre”.
For `N[C@@H](CS)C(=O)N[C@@H](Cc1c[nH]c2ccccc12)C(=O)N[C@@H](Cc1c[nH]cn1)C(=O)N[C@@H](Cc1ccc(O)cc1)C(=O)O` [CWHY] (H-CWHY-OH), the State [1, 4] was “gel”, the “Concentration” value [1] was 120000 µM and the GELATION [1, 5] was 1. For the same compound, the Morphology ([2]; line of the table gives 120 mM) was “aggregates”.
With `CC(C)[C@H](N)C(=O)N[C@@H](Cc1ccc(O)cc1)C(=O)N[C@H](C(=O)N[C@@H](Cc1ccccc1)C(=O)O)[C@@H](C)O` [VYTF] (H-VYTF-OH) the State [1, 4] was “sol”, the “Concentration” value [1] was 120000 µM and the GELATION [1, 5] was 0. The Morphology ([2]; line of the table gives 120 mM) was “particle”.
With `CC(C)C[C@H](NC(=O)[C@H](CO)NC(=O)[C@H](CC(C)C)NC(=O)[C@@H](N)CC(C)C)C(=O)O` [LLSL] (H-LLSL-OH) the State [1, 6] was “gel”, the “Concentration” value [1] was 60000 µM and the GELATION [1, 7] was 1. For the same compound, the Morphology ([2]; line of the table gives 60 mM) was “sheet”.
